Assay results published in patent US20260042762A1 (Kymera Therapeutics, Inc., priority 2018, published 2026).
Counter-ions that a name gives are not always drawn.

Target: T1, MerTK (Homo sapiens, UniProt Q12866)
T1 construct: endogenous in cells; host or cells: Jurkat cells
T1 sequence (Q12866 21-999): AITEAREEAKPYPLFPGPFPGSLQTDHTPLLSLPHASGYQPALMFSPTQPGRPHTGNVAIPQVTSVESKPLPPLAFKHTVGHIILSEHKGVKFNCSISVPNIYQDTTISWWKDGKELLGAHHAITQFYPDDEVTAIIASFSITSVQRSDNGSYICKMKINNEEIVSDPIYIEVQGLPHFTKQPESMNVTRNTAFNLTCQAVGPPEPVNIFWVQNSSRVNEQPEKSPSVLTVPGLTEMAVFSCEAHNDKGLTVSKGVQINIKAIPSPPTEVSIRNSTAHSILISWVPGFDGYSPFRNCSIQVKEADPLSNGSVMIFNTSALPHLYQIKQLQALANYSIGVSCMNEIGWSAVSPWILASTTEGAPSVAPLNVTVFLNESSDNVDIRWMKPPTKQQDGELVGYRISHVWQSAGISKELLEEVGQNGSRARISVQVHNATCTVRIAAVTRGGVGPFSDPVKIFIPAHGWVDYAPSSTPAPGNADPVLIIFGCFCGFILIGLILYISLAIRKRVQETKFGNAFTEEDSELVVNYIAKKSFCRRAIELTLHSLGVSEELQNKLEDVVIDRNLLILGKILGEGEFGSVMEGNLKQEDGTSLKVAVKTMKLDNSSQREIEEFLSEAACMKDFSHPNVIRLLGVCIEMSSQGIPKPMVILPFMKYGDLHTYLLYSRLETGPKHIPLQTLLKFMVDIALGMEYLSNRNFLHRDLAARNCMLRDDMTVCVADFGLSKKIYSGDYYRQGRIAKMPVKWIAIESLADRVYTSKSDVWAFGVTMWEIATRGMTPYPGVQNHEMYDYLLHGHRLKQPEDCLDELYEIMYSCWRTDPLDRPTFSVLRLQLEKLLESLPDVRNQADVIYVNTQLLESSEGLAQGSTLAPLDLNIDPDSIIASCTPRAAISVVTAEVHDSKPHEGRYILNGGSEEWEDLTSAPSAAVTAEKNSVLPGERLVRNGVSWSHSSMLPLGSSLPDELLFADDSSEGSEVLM
Test: MerTk degradation in Jurkat cells (Western blot)
Type: cell-based
Details: Jurkat, 4 h, 0.001-1 μM, 4 hour-incubation at 37° C., read-out: Jurkat Max % MerTK Degradation
How it was run: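 Jurkat cells treated 4 h at 37 °C with compound at 0.001-1 μM final. RIPA lysates quantified by BCA, then MerTK probed by Western blot against actin loading control with IR-dye secondaries and Odyssey imaging.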

Structure (SMILES) | Dmax [%]
C[C@@H](CC(F)(F)F)Nc1ncc2c(-c3ccc(CN4CCN(CCCOC5CN(Cc6ccc7c(c6)n(C)c(=O)n7C6CCC(=O)NC6=O)C5)CC4)cc3)cn([C@H]3CC[C@H](O)CC3)c2n1 (stereo partly drawn) [I-201, 3-(3-methyl-2-oxo-5-[[3-(3-[4-[(4-[7-[trans-4-hydroxycyclohexy1]-2-[[(2S)-4,4,4-trifluorobutan-2-yl]amino]pyrrolo[2,3-d]pyrimidin-5-y1]phenyl)methyl]piperazin-1-yl]propoxy)azetidin-1-yl]methy1]-1,3-benzodiazol-1-yl)piperidine-2,6-dione; tris(formic acid)] | 20 to 50
O=C1CC[C@H](n2c3ccc(CCCOCCOCCN4CCN(Cc5ccc(-c6cn([C@H]7CC[C@H](O)CC7)c7nc(NCCC(F)(F)F)ncc67)cc5)CC4)cc3c3cccnc32)C(=O)N1 [I-125, 3-(6-[3-[2-(2-[4-[(4-[7-[trans-4-hydroxycyclohexyl]-2-[(3,3,3-trifluoropropyl)amino]-7H-pyrrolo[2,3-d]pyrimidin-5-yl]phenyl)methyl]piperazin-1-yl]ethoxy)ethoxy]propyl]-9H-pyrido[2,3-b]indol-9-y1)piperidine-2,6-dione] | > 50
COC[C@H](C)Nc1ncc2c(-c3ccc(CN4CCN(CCOCCOCCOCCOCCNc5cccc6c5n(C)c(=O)n6C5CCC(=O)NC5=O)CC4)cc3)cn([C@H]3CC[C@H](O)CC3)c2n1 (stereo partly drawn) [I-4, Trans-3-[4-[15-(4-[[4-(2-[[(2S)-1-methoxypropan-2-yl]amino]-7-[4-hydroxycyclohexyl]-7H-pyrrolo[2,3-d]pyrimidin-5-yl)phenyl]methyl]piperazin-1-yl)-4,7,10,13-tetraoxa-1-azapentadecan-1-yl]-3-methyl-2-oxo-2,3-dihydro-1H-1,3-benzodiazol-1-yl]piperidine-2,6-dione bis(formic acid)] | > 50
Cn1c(=O)n([C@H]2CCC(=O)NC2=O)c2ccc(C#CCOCCN3CCC(N4CCN(Cc5ccc(-c6cn([C@H]7CC[C@H](O)CC7)c7nc(NCCC(F)(F)F)ncc67)cc5)CC4)CC3)cc21 [I-86, 3-(3-methyl-2-oxo-5-[3-[2-(4-[4-[(4-[7-[trans-4-hydroxycyclohexy1]-2-[(3,3,3-trifluoropropyl)amino]-7H-pyrrolo[2,3-d]pyrimidin-5-yl]phenyl)methyl]piperazin-1-yl]piperidin-1-yl)ethoxy]prop-1-yn-1-yl]-2,3-dihydro-1H-1,3-benzodiazol-1-yl)piperidine-2,6-dione; formic acid] | > 50
Cc1ncsc1-c1ccc(CNC(=O)[C@@H]2C[C@@H](O)CN2C(=O)[C@@H](NC(=O)C2(F)CC2)C(C)(C)C)c(OCCOCCOCCOCCN2CCN(Cc3ccc(-c4cn([C@H]5CC[C@H](O)CC5)c5nc(NCCC(F)(F)F)ncc45)cc3)CC2)c1 [I-190] | > 50
Cn1c(=O)n([C@H]2CCC(=O)NC2=O)c2cccc(CCCOCCOCCN3CCN(Cc4ccc(-c5cn([C@H]6CC[C@H](O)CC6)c6nc(NCCC(F)(F)F)ncc56)cc4)CC3)c21 [I-135, 3-(3-methyl-2-oxo-4-[3-[2-(2-[4-[(4-[7-[trans-4-hydroxycyclohexyl]-2-[(3,3,3-trifluoropropyl)amino]pyrrolo[2,3-d]pyrimidin-5-yl]phenyl)methyl]piperazin-1-yl]ethoxy)ethoxy]propyl]-1,3-benzodiazol-1-y1)piperidine-2,6-dione] | > 50
Cn1c(=O)n([C@H]2CCC(=O)NC2=O)c2ccc(CCCOCCCOCCN3CCN(Cc4ccc(-c5cn([C@H]6CC[C@H](O)CC6)c6nc(NCC7CC7)ncc56)cc4)CC3)cc21 [I-72, 3-(5-[3-[3-(2-[4-[(4-[2-[(cyclopropylmethyl)amino]-7-[trans-4-hydroxycyclohexy1]-7H-pyrrolo[2,3-d]pyrimidin-5-yl]phenyl)methyl]piperazin-1-yl]ethoxy)propoxy]propy1]-3-methyl-2-oxo-2,3-dihydro-1H-1,3-benzodiazol-1-yl)piperidine-2,6-dione; formic acid] | > 50
Cn1c(=O)n(C2CCC(=O)NC2=O)c2ccc(CCCOCCN3CCC(N4CCN(Cc5ccc(-c6cn([C@H]7CC[C@H](O)CC7)c7nc(NCCC(F)(F)F)ncc67)cc5)CC4)C3)cc21 (stereo partly drawn) [I-93, 3-(3-methyl-2-oxo-5-[3-[2-(3-[4-[(4-[7-[trans-4-hydroxycyclohexy1]-2-[(3,3,3-trifluoropropyl)amino]-7H-pyrrolo[2,3-d]pyrimidin-5-yl]phenyl)methyl]piperazin-1-yl]pyrrolidin-1-y1)ethoxy]propyl]-2,3-dihydro-1H-1,3-benzodiazol-1-yl)piperidine-2,6-dione; formic acid] | > 50
Cn1c(=O)n([C@H]2CCC(=O)NC2=O)c2cccc(CCCOCCCOCCCNCc3ccc(-c4cn([C@H]5CC[C@H](O)CC5)c5nc(NCCC(F)(F)F)ncc45)cc3)c21 [I-52, 3-(3-methyl-2-oxo-4-[3-[3-(3-[[(4-[7-[trans-4-hydroxycyclohexyl]-2-[(3,3,3-trifluoropropyl)amino]-7H-pyrrolo[2,3-d]pyrimidin-5-yl]phenyl)methyl]amino]propoxy)propoxy]propyl]-2,3-dihydro-1H-1,3-benzodiazol-1-y1)piperidine-2,6-dione hydrochloride] | > 50
CCCCNc1ncc2c(-c3ccc(CNCCOCCOCCCc4ccc5c(c4)n(C)c(=O)n5[C@H]4CCC(=O)NC4=O)cc3)cn([C@H]3CC[C@H](O)CC3)c2n1 [I-45, 3-[5-[3-(2-[2-[([4-[2-(butylamino)-7-[trans-4-hydroxycyclohexy1]-7H-pyrrolo[2,3-d]pyrimidin-5-yl]phenyl]methyl)amino]ethoxy]ethoxy)propyl]-3-methyl-2-oxo-2,3-dihydro-1H-1,3-benzodiazol-1-y1]piperidine-2,6-dione; formic acid] | > 50
CC(c1ccc(-c2cn([C@H]3CC[C@H](O)CC3)c3nc(NCCC(F)(F)F)ncc23)cc1)N1CCN(CCCOCCCc2ccc3c(c2)n(C)c(=O)n3C2CCC(=O)NC2=O)CC1 (stereo partly drawn) [I-80, 3-[3-methyl-2-oxo-5-[3-(3-[4-[1-(4-[7-[trans-4-hydroxycyclohexyl]-2-[(3,3,3-trifluoropropyl)amino]-7H-pyrrolo[2,3-d]pyrimidin-5-yl]phenyl)ethyl]piperazin-1-yl]propoxy)propyl]-2,3-dihydro-1H-1,3-benzodiazol-1-yl]piperidine-2,6-dione] | > 50
C[C@H](CC(F)(F)F)Nc1ncc2c(-c3ccc(CN4CCN(CCCOC5CCN(Cc6ccc7c(c6)n(C)c(=O)n7C6CCC(=O)NC6=O)CC5)CC4)cc3)cn([C@H]3CC[C@H](O)CC3)c2n1 (stereo partly drawn) [I-196, 3-(3-methyl-2-oxo-5-[[4-(3-[4-[(4-[7-[trans-4-hydroxycyclohexyl]-2-[[(2R)-4,4,4-trifluorobutan-2-yl]amino]pyrrolo[2,3-d]pyrimidin-5-y1]phenyl)methyl]piperazin-1-yl]propoxy)piperidin-1-yl]methyl]-1,3-benzodiazol-1-yl)piperidine-2,6-dione] | > 50
O=C(c1ccc(CNCc2ccc(-c3ccc4c(cnn4CC4CC4)c3)cc2)cc1)N1CCC(C2CCN(Cc3ccc(-c4cn([C@H]5CC[C@H](O)CC5)c5nc(NCCC(F)(F)F)ncc45)cc3)CC2)CC1 [I-202, (4-(((4-(1-(cyclopropylmethyl)-1H-indazol-5-yl)benzyl)amino)methyl)phenyl)(1′-(4-(7-(trans-4-hydroxycyclohexyl)-2-((3,3,3-trifluoropropyl)amino)-7H-pyrrolo[2,3-d]pyrimidin-5-yl)benzyl)-[4,4′-bipiperidin]-1-yl)methanone; formic acid] | < 20
CCCCNc1ncc2c(-c3ccc(C(C)N4CCN(CCOCCOCCOCCOCCCc5ccc6c(c5)n(C)c(=O)n6C5CCC(=O)NC5=O)CC4)cc3)cn([C@H]3CC[C@H](O)CC3)c2n1 (stereo partly drawn) [I-59, 3-(5-[1-[4-(1-[4-[2-(butylamino)-7-[trans-4-hydroxycyclohexy1]-7H-pyrrolo[2,3-d]pyrimidin-5-yl]phenyl]ethyl)piperazin-1-yl]-3,6,9,12-tetraoxapentadecan-15-y1]-3-methyl-2-oxo-2,3-dihydro-1H-1,3-benzodiazol-1-yl)piperidine-2,6-dione] | > 50
CCC[C@H](C)Nc1ncc2c(-c3ccc(CN4CCN(C5CC(OCCc6ccc7c(c6)n(C)c(=O)n7C6CCC(=O)NC6=O)C5)CC4)cc3)cn([C@H]3CC[C@](C)(O)CC3)c2n1 (stereo partly drawn) [I-188, 3-[3-methyl-2-oxo-5-[2-(3-[4-[(4-[2-[(2S)-pentan-2-ylamino]-7-[trans-4-hydroxy-4-methylcyclohexyl]pyrrolo[2,3-d]pyrimidin-5-yl]phenyl)methyl]piperazin-1-yl]cyclobutoxy)ethyl]-1,3-benzodiazol-1-yl]piperidine-2,6-dione; formic acid] | > 50
